Experimental data taken from patent US4032625A, “Bone-seeking technetium-99m complex” (priority 1975, dated 1977).
Where two headings read alike, the source gives them in different places.

Conditions: 2 Hrs

For `[85Sr]` [^85 Sr], the “% Dose in Whole Organ: Blood” value (0.1 mg/kg AEDP) was 2.48 % Dose, the “% Dose in Whole Organ: Kidneys” value (0.1 mg/kg AEDP) was 0.324 % Dose and the “% Dose in Whole Organ: Liver” value (0.1 mg/kg AEDP) was 0.654 % Dose. For the same compound, the “% Dose in Whole Organ: Marrow” value (0.1 mg/kg AEDP) was 0.244 % Dose, the “% Dose in Whole Organ: Muscle” value (0.1 mg/kg AEDP) was 5.15 % Dose and the “% Dose in Whole Organ: W. Femur” value (0.1 mg/kg AEDP) was 3.27 % Dose. For the same compound, the “% Dose in Whole Organ: W. Tibia” value (0.1 mg/kg AEDP) was 2.99 % Dose, the “% Dose/1% Body weight: Blood” value (0.1 mg/kg AEDP) was 0.354 % Dose/1% Body weight and the “% Dose/1% Body weight: Bone Ave” value (0.1 mg/kg AEDP) was 10.48 % Dose/1% Body weight. For the same compound, the “% Dose/1% Body weight: Femur” value (0.1 mg/kg AEDP) was 10.97 % Dose/1% Body weight, the “% Dose/1% Body weight: Kidneys” value (0.1 mg/kg AEDP) was 0.441 % Dose/1% Body weight and the “% Dose/1% Body weight: Liver” value (0.1 mg/kg AEDP) was 0.182 % Dose/1% Body weight. The “% Dose/1% Body weight: Marrow” value (0.1 mg/kg AEDP) was 0.166 % Dose/1% Body weight, the “% Dose/1% Body weight: Muscle” value (0.1 mg/kg AEDP) was 0.136 % Dose/1% Body weight and the “% Dose/1% Body weight: Pelvis” value (0.1 mg/kg AEDP) was 8.66 % Dose/1% Body weight. The “% Dose/1% Body weight: Spine” value (0.1 mg/kg AEDP) was 10.56 % Dose/1% Body weight, the “% Dose/1% Body weight: Tibia” value (0.1 mg/kg AEDP) was 11.71 % Dose/1% Body weight and the “% Dose: Urine” value (0.1 mg/kg AEDP) was 12.1 % Dose. For the same compound, the “% Dose in Whole Organ: Blood” value (0.1 mg/kg EHDP) was 3.10 % Dose, the “% Dose in Whole Organ: Kidneys” value (0.1 mg/kg EHDP) was 0.30 % Dose and the “% Dose in Whole Organ: Liver” value (0.1 mg/kg EHDP) was 0.64 % Dose. For the same compound, the “% Dose in Whole Organ: Marrow” value (0.1 mg/kg EHDP) was 0.43 % Dose, the “% Dose in Whole Organ: One Femur” value (0.1 mg/kg EHDP) was 3.42 % Dose and the “% Dose/1%-body weight: Blood” value (0.1 mg/kg EHDP) was 0.443 % Dose/1%-body weight. The “% Dose/1%-body weight: Femur” value (0.1 mg/kg EHDP) was 10.9 % Dose/1%-body weight, the “% Dose/1%-body weight: Kidney” value (0.1 mg/kg EHDP) was 0.513 % Dose/1%-body weight and the “% Dose/1%-body weight: Liver” value (0.1 mg/kg EHDP) was 0.230 % Dose/1%-body weight. The “% Dose/1%-body weight: Marrow” value (0.1 mg/kg EHDP) was 0.195 % Dose/1%-body weight, the “% Dose: Urine” value (0.1 mg/kg EHDP) was 11.31 % Dose and the “% Dose in Whole Organ: Blood” value (0.1 mg/kg MDP) was 3.95 % Dose. The “% Dose in Whole Organ: Kidneys” value (0.1 mg/kg MDP) was 0.66 % Dose, the “% Dose in Whole Organ: Liver” value (0.1 mg/kg MDP) was 1.05 % Dose and the “% Dose in Whole Organ: Marrow” value (0.1 mg/kg MDP) was 0.57 % Dose. For the same compound, the “% Dose in Whole Organ: Muscle” value (0.1 mg/kg MDP) was 9.32 % Dose, the “% Dose in Whole Organ: One Femur” value (0.1 mg/kg MDP) was 2.80 % Dose and the “% Dose/1% Body weight: Blood” value (0.1 mg/kg MDP) was 0.56 % Dose/1% body weight. For the same compound, the “% Dose/1% Body weight: Femur” value (0.1 mg/kg MDP) was 10.0 % Dose/1% body weight, the “% Dose/1% Body weight: Kidneys” value (0.1 mg/kg MDP) was 1.00 % Dose/1% body weight and the “% Dose/1% Body weight: Liver” value (0.1 mg/kg MDP) was 0.30 % Dose/1% body weight. The “% Dose/1% Body weight: Marrow” value (0.1 mg/kg MDP) was 0.26 % Dose/1% body weight, the “% Dose/1% Body weight: Muscle” value (0.1 mg/kg MDP) was 0.22 % Dose/1% body weight and the “% Dose/1% Body weight: Pelvis” value (0.1 mg/kg MDP) was 12.2 % Dose/1% body weight. For the same compound, the “% Dose/1% Body weight: Spine” value (0.1 mg/kg MDP) was 8.45 % Dose/1% body weight, the “% Dose/1% Body weight: Tibia” value (0.1 mg/kg MDP) was 6.05 % Dose/1% body weight and the “% Dose/1% body weight: Ave Bone” value (0.1 mg/kg MDP) was 9.17 % Dose/1% body weight. For the same compound, the “% Dose: Urine” value (0.1 mg/kg MDP) was 15.4 % Dose, the “% Dose in Whole Organ: Blood” value (0.5 mg/kg AEDP) was 4.36 % Dose and the “% Dose in Whole Organ: Kidneys” value (0.5 mg/kg AEDP) was 0.384 % Dose. The “% Dose in Whole Organ: Liver” value (0.5 mg/kg AEDP) was 0.720 % Dose, the “% Dose in Whole Organ: Marrow” value (0.5 mg/kg AEDP) was 0.456 % Dose and the “% Dose in Whole Organ: Muscle” value (0.5 mg/kg AEDP) was 6.51 % Dose. The “% Dose in Whole Organ: W. Femur” value (0.5 mg/kg AEDP) was 2.75 % Dose, the “% Dose in Whole Organ: W. Tibia” value (0.5 mg/kg AEDP) was 2.42 % Dose and the “% Dose/1% Body weight: Blood” value (0.5 mg/kg AEDP) was 0.624 % Dose/1% Body weight. The “% Dose/1% Body weight: Bone Ave” value (0.5 mg/kg AEDP) was 10.78 % Dose/1% Body weight, the “% Dose/1% Body weight: Femur” value (0.5 mg/kg AEDP) was 10.43 % Dose/1% Body weight and the “% Dose/1% Body weight: Kidneys” value (0.5 mg/kg AEDP) was 0.924 % Dose/1% Body weight. For the same compound, the “% Dose/1% Body weight: Liver” value (0.5 mg/kg AEDP) was 0.270 % Dose/1% Body weight, the “% Dose/1% Body weight: Marrow” value (0.5 mg/kg AEDP) was 0.207 % Dose/1% Body weight and the “% Dose/1% Body weight: Muscle” value (0.5 mg/kg AEDP) was 0.151 % Dose/1% Body weight. The “% Dose/1% Body weight: Pelvis” value (0.5 mg/kg AEDP) was 11.42 % Dose/1% Body weight, the “% Dose/1% Body weight: Spine” value (0.5 mg/kg AEDP) was 9.87 % Dose/1% Body weight and the “% Dose/1% Body weight: Tibia” value (0.5 mg/kg AEDP) was 11.37 % Dose/1% Body weight. For the same compound, the “% Dose: Urine” value (0.5 mg/kg AEDP) was 10.47 % Dose, the “% Dose in Whole Organ: Blood” value (0.5 mg/kg EHDP) was 4.43 % Dose and the “% Dose in Whole Organ: Kidneys” value (0.5 mg/kg EHDP) was 0.48 % Dose. The “% Dose in Whole Organ: Liver” value (0.5 mg/kg EHDP) was 0.76 % Dose, the “% Dose in Whole Organ: Marrow” value (0.5 mg/kg EHDP) was 0.34 % Dose and the “% Dose in Whole Organ: One Femur” value (0.5 mg/kg EHDP) was 2.48 % Dose. For the same compound, the “% Dose/1%-body weight: Blood” value (0.5 mg/kg EHDP) was 0.633 % Dose/1%-body weight, the “% Dose/1%-body weight: Femur” value (0.5 mg/kg EHDP) was 9.213 % Dose/1%-body weight and the “% Dose/1%-body weight: Kidney” value (0.5 mg/kg EHDP) was 0.972 % Dose/1%-body weight. For the same compound, the “% Dose/1%-body weight: Liver” value (0.5 mg/kg EHDP) was 0.244 % Dose/1%-body weight, the “% Dose/1%-body weight: Marrow” value (0.5 mg/kg EHDP) was 0.152 % Dose/1%-body weight and the “% Dose: Urine” value (0.5 mg/kg EHDP) was 19.67 % Dose. The “% Dose in Whole Organ: Blood” value (0.5 mg/kg MDP) was 3.11 % Dose, the “% Dose in Whole Organ: Kidneys” value (0.5 mg/kg MDP) was 0.45 % Dose and the “% Dose in Whole Organ: Liver” value (0.5 mg/kg MDP) was 0.69 % Dose. The “% Dose in Whole Organ: Marrow” value (0.5 mg/kg MDP) was 0.67 % Dose, the “% Dose in Whole Organ: Muscle” value (0.5 mg/kg MDP) was 5.65 % Dose and the “% Dose in Whole Organ: One Femur” value (0.5 mg/kg MDP) was 2.96 % Dose. For the same compound, the “% Dose/1% Body weight: Blood” value (0.5 mg/kg MDP) was 0.45 % Dose/1% body weight, the “% Dose/1% Body weight: Femur” value (0.5 mg/kg MDP) was 11.32 % Dose/1% body weight and the “% Dose/1% Body weight: Kidneys” value (0.5 mg/kg MDP) was 0.69 % Dose/1% body weight. For the same compound, the “% Dose/1% Body weight: Liver” value (0.5 mg/kg MDP) was 0.23 % Dose/1% body weight, the “% Dose/1% Body weight: Marrow” value (0.5 mg/kg MDP) was 0.30 % Dose/1% body weight and the “% Dose/1% Body weight: Muscle” value (0.5 mg/kg MDP) was 0.13 % Dose/1% body weight. The “% Dose/1% Body weight: Pelvis” value (0.5 mg/kg MDP) was 8.68 % Dose/1% body weight, the “% Dose/1% Body weight: Spine” value (0.5 mg/kg MDP) was 8.92 % Dose/1% body weight and the “% Dose/1% Body weight: Tibia” value (0.5 mg/kg MDP) was 6.16 % Dose/1% body weight. For the same compound, the “% Dose/1% body weight: Ave Bone” value (0.5 mg/kg MDP) was 8.77 % Dose/1% body weight and the “% Dose: Urine” value (0.5 mg/kg MDP) was 15.16 % Dose.
